In experiment [1] the test system is subjects with occult or minimally classic subtypes of choroidal neovascularization due to AMD. In words: Best-corrected visual acuity (BCVA, ETDRS/AREDS procedure) in AMD patients, 28-day eye-drop study. It counts as in vivo, human. The conditions noted are these: for Change from Baseline in BCVA Day 29, Point Estimate: Overall. The method, then:
(§1) Three dosing regimens of pazopanib monohydrochloride eye drops (5 mg/mL TID, 2 mg/mL TID, 5 mg/mL QD) were administered for 28 days to 70 subjects with occult or minimally classic subtypes of choroidal neovascularization due to AMD. This study was designed to measure pharmacological activity of topically administered pazopanib in target tissues (choroid and retina) of patients with AMD by weekly evaluation of central retinal lesion thickness as measured by optical coherence tomography (OCT). In addition, the ocular and systemic safety and systemic pharmacokinetics of pazopanib treatment for 28 days were evaluated. Evaluation of efficacy was performed on an exploratory basis by weekly measurement of visual acuity, performing best-corrected visual acuity assessments at screening and day 29.
(§2) Of the total of 70 subjects that were randomized, 28 had been previously treated with anti-angiogenic agents for treatment of macular degeneration and 42 were treatment-naïve. The protocol excluded subjects who had received any treatment for AMD within 60 days of the first dose of study medication in this trial. A total of 68 subjects completed all study assessments, of which 63 completed the assessments of Day 29 visit without receiving any rescue medication. 6 subjects received anti-VEGF rescue medication prior to the Day 29 assessment (1 of 27 in the 5 mg/ml TID arm, 2 of 27 in the 2 mg/ml TID, 3 of 16 subjects in the 5 mg QD arm, which was discontinued per protocol amendment due to feasibility.) Baseline characteristics in the study were similar between treatment groups, with the exception of age and lesion size, which were increased in the 2 mg/ml TID arm.
Sites were trained and certified for visual acuity assessment with the standard procedure developed for the Early Treatment Diabetic Retinopathy Study (ETDRS) and adapted for the Age Related Eye Disease Study (AREDS). Best-corrected visual acuity (BCVA) measurements were performed at screening and Day 29 visits and, at other visits, use of the previous refraction for the visual acuity (VA) assessment was allowed.

Experiment [2] has the same test system. In words: Optical coherence tomography central retinal thickness (OCT CRT/CRLT) in AMD patients, 28-day eye-drop study. It counts as in vivo, human. As to the method:
as §1, §2
Sites were certified by a central reading center to collect images to assess Central Retinal Thickness (CRT, subretinal fluid) and Central Retinal Lesion Thickness (CRLT, subretinal fluid and neovascular lesion) on a Stratus OCT 3 instrument weekly. Values were then determined by manual measurement at the reading center. As used herein, “OCT CRLT” means optical coherence tomography central retinal/lesion thickness as determined by manual measurement of the distance between the inner and outer retina, inclusive of subretinal fluid and any choroidal neovascularization (CNV) as measured in the central 1 mm area of the 7 mm posterior pole scan. As used herein, “OCT CRT” means optical coherence tomography central retinal thickness as determined by manual measurement of the distance between the inner and outer retina inclusive of any subretinal fluid as measured in the central 1 mm area of the 7 mm posterior pole scan.

Counter-ions that a name gives are not always drawn.

As for `Cc1ccc(Nc2nccc(N(C)c3ccc4c(C)n(C)nc4c3)n2)cc1S(N)(=O)=O` [pazopanib monohydrochloride, 5-[[4-[(2,3-dimethyl-2H-indazol-6-yl)methylamino]-2-pyrimidinyl]amino]-2-methylbenzenesulfonamide monohydrochloride], the “Change from Baseline BCVA at Day 29, BCVA LSMean (SE)” value in experiment [1] (2 mg/ml TID, CFH Y402H genotype CC, N=3) is on record as 0.85 (4.07); in experiment [1] (2 mg/ml TID, CFH Y402H genotype CT, N=10) it was −1.52 (2.24); in experiment [1] (2 mg/ml TID, CFH Y402H genotype TT, N=4), 5.43 (3.60); in experiment [1] (5 mg/ml TID, CFH Y402H genotype CC, N=7), 0.36 (2.68); in experiment [1] (5 mg/ml TID, CFH Y402H genotype CT, N=9) it was 4.09 (2.38); in experiment [1] (5 mg/ml TID, CFH Y402H genotype TT, N=5) it was 6.96 (3.18). The “change in visual acuity” value in experiment [1] (5 mg/ml TID group only, enhanced in previously treated group and those with a T allele) is given as “Statistically significant increases”. For the same compound, the “Change from Baseline in BCVA at Day 29, Point Estimate” value in experiment [1] (Naïve Subjects, 2 mg/mL TID) is listed as 1.16; in experiment [1] (Naïve Subjects, 5 mg/mL TID), 3.38; in experiment [1] (Naïve Subjects, 5 mg/mL once daily), 0.80; in experiment [1] (Previously Treated Subjects, 2 mg/mL TID) it was 0.18; in experiment [1] (Previously Treated Subjects, 5 mg/mL TID), 5.61; in experiment [1] (Previously Treated Subjects, 5 mg/mL once daily), −0.80. The “Change from Baseline in BCVA Day 29, Point Estimate” value in experiment [1] (2 mg/mL TID) is 0.76; in experiment [1] (5 mg/mL QD) it was 0.09; in experiment [1] (5 mg/mL TID), 4.32. Also, the “Change from Baseline in Central Retinal Thickness at Day 29, CRT LSMean” value was 22.15 in experiment [2] (2 mg/ml TID eye drops, CFH genotype CC, N=3); −14.6 in experiment [2] (2 mg/ml TID eye drops, CFH genotype CT, N=10); −45.5 in experiment [2] (2 mg/ml TID eye drops, CFH genotype TT, N=4); 9.23 in experiment [2] (5 mg/ml TID eye drops, CFH genotype CC, N=7); 21.51 in experiment [2] (5 mg/ml TID eye drops, CFH genotype CT, N=9); −88.8 in experiment [2] (5 mg/ml TID eye drops, CFH genotype TT, N=5). Also, the “mean decrease in CRT” value in experiment [2] (day 29, subjects with the CFH TT genotype, 5 mg/ml TID, statistically significant) was 89 micron. The “changes from baseline in OCT CRT / CRLT” value in experiment [2] (overall population) is “no statistically significant changes from baseline”.

Values taken from patent publication US20120165354A1, “TREATMENT METHOD” (GLAXO WELLCOME MANUFACTURING PTE LTD., priority 2009, published 2012).
